Values of other authors as cited in PMC3241508 (Bioconjugate chemistry, 2011).

For dextran sulfate, the “oral absorption into the blood stream” value (later study) is given as “good oral absorption” and the oral absorption (oral) is given as “poorly absorbed orally”.
